Laboratory results taken from patent US20140212493A1, “Highly Bioavailable Composition Containing Eprosartan - Poloxamer Complex or 2-(7-Chloro-5-Methyl-4-Oxo-3-Phenyl-4,5-Dihydro-3H-Pyridazine (4,5-b)Indol-1-yl)-N,N-Dimethylacetamide - Poloxamer Complex” (BVM Holding Co., priority 2003, published 2014).
Counter-ions that a name gives are not always drawn.

How the values were obtained:
[1] = Dissolution of NZ and NZ-poloxamer complex, USP apparatus II, purified water; format: physicochemical; conditions: equivalent to 20mg drug, 1000 ml purified water, 37° C., 75 rpm
Protocol: (§1) The dissolution rate of the association complex may be carried out using a suitable solvent such as 0.1 N HCl purified water, or simulated gastric fluid, as dissolution medium. The testing is conducted under conditions intended to simulate ingestions at about 37° C. and from about 25 to about 75 rpm. The dissolution may be tested using any method known in the art such as USP apparatus I (a basket apparatus) or USP apparatus II (a paddle apparatus) (USP 27/NF 22, 2004, <711>, page 2303). Samples of the solution are taken at preselected intervals such as at every fifteen minutes up to one hour.
Lutrol F-68 and NZ, 250 mg are mixed in a jacketed vessel (KG 5) and heated to 53° C. while mixing for about 2 hours. The resulting complex thus formed is allowed to cool to room temperature and sieved through a 40 mesh screen. The dissolution of the complex equivalent to 20mg drug is determined using USP apparatus II, 1000 ml of purified water as the dissolution medium at 37° C. and 75 rpm.

[2] = Dissolution of EPM and EPM-poloxamer complexes, USP apparatus II, SGF; format: physicochemical; conditions: equivalent to 400 mg dose, SGF without pepsin, 37° C., 25 rpm
Protocol: as §1
Lutrol F-68, 1.0 gm, and EPM, 1.0 gm, are mixed in a jacketed vessel (KG5) heated to 53° C. while mixing for about 2 hrs. The resulting complex, in the form of free flowing granules, thus formed is allowed cool to room temperature and sieved through a 40 mesh screen. The dissolution of the complex equivalent to the 400 mg dose is determined using USP apparatus II, 900 ml of SGF (simulated gastric fluid without pepsin) as the dissolution medium at 37° C. and 25 rpm.
The dissolution of the complex equivalent to a 400 mg dose is determined using USP apparatus II, in SGF as the dissolution medium at 37° C. and 25 rpm.

| SMILES | % DISSOLVED ([1]; 15 minutes) [%] | % DISSOLVED ([1]; 30 minutes) [%] | % DISSOLVED ([1]; 45 minutes) [%] | % DISSOLVED ([1]; 60 minutes) [%] | % DISSOLVED ([2]; 15 minutes) [%] | % DISSOLVED ([2]; 30 minutes) [%] | % DISSOLVED ([2]; 45 minutes) [%] | % DISSOLVED ([2]; 60 minutes) [%] |
| --- | --- | --- | --- | --- | --- | --- | --- | --- |
| CN(C)C(=O)Cc1nn(-c2ccccc2)c(=O)c2c1c1ccc(Cl)cc1n2C [NZ, 2-(7-chloro-5-methyl-4-oxo-3-phenyl-4,5 dihydro-3H-pyridazino (4,5-b)-indol-1-yl)-N,N-dimethylacetamide] | 0.65 | 1.90 | 2.53 | 3.14 | – | – | – | – |
| CCCCc1ncc(/C=C(\Cc2cccs2)C(=O)O)n1Cc1ccc(C(=O)O)cc1 [EPM, eprosartan mesylate] | – | – | – | – | 38.7 | 51.9 | 61.3 | 61.7 |
